From US6384080B1, “Anthranilic acid derivatives as inhibitors of the cGMP-phosphodiesterase” (Fujisawa Pharmaceutical Co., Ltd., priority 1998, dated 2002)
Structures can show the parent of a compound that is named as a salt.

biological target: T1, human platelet PDE-V (Homo sapiens, UniProt O76074); assay: cGMP-Phosphodiesterase (PDE) assay, enzymatic inhibitory test; format: biochemical; settings: not given
T1 construct: Human platelet cGMP-PDE was separated from other isozymes in human platelets; from tissue; host or cells: human platelets
Protocol: cGMP-Phosphodiesterase (PDE) Assay
Human platelet cGMP-PDE was separated from other isozymes in human platelets by a modification of the method of Thompson et. al. (see Cyclic Nucleotide Phosphodiesterase (PDE), in Methods of Enzymatic analysis, Vol 4, p127-234, 1984). In enzyme inhibition assays, the test compounds were dissolved in DMSO and then diluted with assay buffer (50 mM Tris-HCl, 0.077 mg/ml dithiothreitol and 10 mg/ml snake venom, 1 mM EGTA, pH 8.0), at final concentrations ranging from 10^−10 to 10^−6 M. Assays were performed at 0.1 μM substrate ([^3H]-cGMP) concentration, at 30° C. for 10 minutes using enzyme dilutions which gave 10-20% hydrolysis of substrate. Each assay was initiated by addition of substrate and terminated by addition of anion exchange resin (Dowex® 1-X8, 250 mg/mg) followed by centrifugation for 10 minutes (3000 rpm, at 4° C.). Radioactivity of supernatant (^3H-GMP) was assayed by liquid scintillation counting.

Compound	IC50
O=C(NCc1ccc2c(c1)OCO2)c1cc([N+](=O)[O-])ccc1NC(CCl)CCl [2-[2-Chloro-1-(chloromethyl)ethylamino]-5-nitro-N-(1,3-benzodioxol-5-ylmethyl)benzamide]	< 10 nM
CC[C@H](CO)Nc1ccc([N+](=O)[O-])cc1C(=O)NCc1ccc(Cl)c([N+](=O)[O-])c1 [(R)-N-(4-Chloro-3-nitrobenzyl)-2-[1-(hydroxymethyl)propylamino]-5-nitrobenzamide]	< 10 nM

same assay, conditions: human platelet PDE-V; 0.1 μM [3H]-cGMP substrate, 30° C., 10 minutes; read-out: Inhibitory activity IC50

IC50	Compound
< 10 nM	CC[C@H](CO)Nc1ccc([N+](=O)[O-])cc1C(=O)NCc1ccc2c(c1)OCO2 [(R)-2-(1-Ethyl-2-hydroxyethylamino)-5-nitro-N-(1,3-benzodioxol-5-ylmethyl)benzamide]
< 10 nM	COc1ccc(CNC(=O)c2cc([N+](=O)[O-])ccc2NC2CCCC2)c(Cl)c1 [N-(2-Chloro-4-methoxybenzyl)-2-(cyclopentyrlamino)-5-nitrobenzamide]
< 10 nM	COc1ccc(CNC(=O)c2cc(Br)ccc2NC2CCCC2)cc1Cl [5-bromo-N-(3-chloro-4-methoxybenzyl)-2-(cycloperitylamino)benzamide hydrochloride]
< 10 nM	O=C(NCc1cccs1)c1cc([N+](=O)[O-])ccc1NC1CCCC1 [2-(Cyclopentylamino)-5-nitro-N-(2-thienylmethyl)benzamide]
< 10 nM	O=C(NCc1cccc(Cl)c1)c1cc([N+](=O)[O-])ccc1NC1CCCC1 [N-(3-Chlorobenzyl)-2-(cyclopentylamino)-5-nitrobenzamide]
< 10 nM	COc1ccc(CNC(=O)c2cc([N+](=O)[O-])ccc2N[C@H](C(N)=O)[C@@H](C)O)cc1OC [2-[(1S, 2R)-1-(Carbamoyl)-2-hydroxypropylamino]-N-(3,4-dimethoxybenzyl)-5-nitrobenzamide]
< 10 nM	CCCCCCNC(=O)c1cc([N+](=O)[O-])ccc1NC1CCCC1 [2-(Cyclopentylamino)-N-hexyl-5-nitrobenzamide]
< 10 nM	C[C@@H](O)[C@@H](CO)Nc1ccc([N+](=O)[O-])cc1C(=O)NCc1ccc2c(c1)OCO2 [2-[(1R, 2R)-2-Hydroxy-1-(hydroxymethyl)propylamino]-5-nitro-N-(1,3-benzodioxol-5-ylmethyl)benzamide]
< 10 nM	O=C(OC1CCC(Nc2ccc([N+](=O)[O-])cc2C(=O)NCc2ccccc2)C1)c1ccccc1 (stereo not drawn) [2-[3-(Benzoyloxy)cyclopentylamino]-N-benzyl-5-nitrobenzamide]
< 10 nM	COC(=O)[C@@H](C)Nc1ccc([N+](=O)[O-])cc1C(=O)NCc1ccc2c(c1)OCO2 [(R)-2-[1-(Methoxycarbonyl)ethylamino]-5-nitro-N-(1,3-benzodioxol-5-ylmethyl)benzamide]
< 10 nM	CCOc1cc(CNC(=O)c2cc([N+](=O)[O-])ccc2N[C@H]2CC[C@@H](O)CC2)ccc1Cl [N-(4-Chloro-3-ethoxybenzyl)-2-(cis-4-hydroxycyclohexylamino)-5-nitrobenzaride]
< 10 nM	O=C(NCc1ccc2c(c1)OCCO2)c1cc([N+](=O)[O-])ccc1N[C@H]1CC[C@H](O)CC1 [N-(3,4-Ethylenedioxybenzyl)-2-(trans-4-hydroxycyclohexylamino)-5-nitrobenzamide]
< 10 nM	COc1ccc(CNC(=O)c2cc([N+](=O)[O-])ccc2N[C@H]2CC[C@H](NC(=N)N)CC2)cc1OC [N-(3,4-dimethoxybenzyl)-2-(trans-4-guanidinocyclohexylamino)-5-nitrobenzamide hydrochloride]
< 10 nM	CCCNC(=O)N[C@H]1CC[C@H](Nc2ccc([N+](=O)[O-])cc2C(=O)NCc2ccc(OC)c(OC)c2)CC1 [N-(3,4-dimethoxybenzyl)-5-nitro-2-[trans-4-(3-propylureido)cyclohexylamino]benzamide]
< 10 nM	CC(C)(C)Nc1ccc([N+](=O)[O-])cc1C(=O)NCc1ccc2c(c1)OCO2 [2-(tert-Butylamino)-5-nitro-N-(1,3-benzodioxol-5-ylmethyl)benzamide]
< 10 nM	O=C(NCc1ccc(C(F)(F)F)cc1)c1cc([N+](=O)[O-])ccc1NC1CCCC1 [2-(Cyclopentylamino)-5-nitro-N-[4-(trifluoromethyl)benzyl]benzamide]
< 10 nM	CC(=O)N1CCC(Nc2ccc([N+](=O)[O-])cc2C(=O)NCc2ccc3c(c2)OCO3)CC1 [2-(1-acetyl-4-piperidinylamino)-5-nitro-N-(1,3-benzodioxol-5-ylmethyl)benzamide]
< 10 nM	O=C(NCc1cc2ccccc2s1)c1cc([N+](=O)[O-])ccc1N[C@H]1CC[C@@H](O)CC1 [N-(Benzo[b]thiophen-2-ylmethyl)-2-(cis-4-hydroxycyclohexylamino)-5-nitrobenzamide]
< 10 nM	O=C1CCC(Nc2ccc([N+](=O)[O-])cc2C(=O)NCc2ccc3c(c2)OCO3)CC1 [5-nitro-2-(4-oxocyclohexylamino)-N-(1,3-benzodioxol-5-ylmethyl)benzamide]

IC50	Compound
< 10 nM	O=C(NCc1nc2ccccc2[nH]1)c1cc([N+](=O)[O-])ccc1NC1CCCC1 [N-[(2-Benzimidazolyl)methyl]-2-(cyclopentylamino)-5-nitrobenzamide]
< 10 nM	O=C(NCc1ccc2c(c1)OCO2)c1cc([N+](=O)[O-])ccc1N[C@H]1CC[C@@H](Cl)CC1 [2-(cis-4-chlorocyclohexylamino)-5-nitro-N-(1,3-benzodioxol-5-ylmethyl)benzamide]
< 10 nM	COc1cc(CNC(=O)c2cc([N+](=O)[O-])ccc2NC2CCCC2)ccc1O [2-(Cyclopentylamino)-N-(4-hydroxy-3-methoxybenzyl)-5-nitrobenzamide]
< 10 nM	O=C(NCc1ccccc1)c1cc([N+](=O)[O-])ccc1N[C@@H]1CCC[C@H]1O (relative stereo) [N-Benzyl-2-(trans-2-hydroxycyclopentylamino)-5-nitrobenzamide]
< 10 nM	O=C(NCc1ccc(Br)cc1)c1cc([N+](=O)[O-])ccc1NC1CCCC1 [N-(4-Bromobenzyl)-2-(cyclopentylamino)-5-nitrobenzamide]
< 10 nM	O=C(NCc1ccccc1)c1cc([N+](=O)[O-])ccc1NC1CCC1 [N-Benzyl-2-(cyclobutylamino)-5-nitrobenzamide]
< 10 nM	O=C(NCc1ccccc1)c1cc([N+](=O)[O-])ccc1NC1CCCCC1 [N-Benzyl-2-(cyclohexylamino)-5-nitrobenzamide]
< 10 nM	O=C(NCc1ccc2c(c1)OCO2)c1cc([N+](=O)[O-])ccc1NC1CCS(=O)(=O)CC1 [2-(1,1-dioxotetrahydro-2H-thiopyran-4-ylamino)-5-nitro-N-(1,3-benzodioxol-5-ylmethyl)benzamide]
< 10 nM	O=C(NCc1ccccc1)c1cc([N+](=O)[O-])ccc1NC1CCC(O)C1 (stereo not drawn) [N-Benzyl-2-(3-hydroxycyclopentylamino)-5-nitrobenzamide]
< 10 nM	O=C(NCc1ccc(F)cc1)c1cc([N+](=O)[O-])ccc1NC1CCCC1 [2-(Cyclopentylamino)-N-(4-fluorobenzyl)-5-nitrobenzamide]
< 10 nM	O=C(NCCc1ccccc1)c1cc([N+](=O)[O-])ccc1NC1CCCC1 [2-(Cyclopentylamino)-5-nitro-N-phenethylbenzamide]
< 10 nM	O=C(NCc1ccccc1)c1cc([N+](=O)[O-])ccc1NC1CC1 [N-Benzyl-2-(cyclopropylamino)-5-nitrobenzamide]
< 10 nM	COc1ccc(CNC(=O)c2cc(C(F)(F)F)ccc2NC(CO)CO)cc1Cl [N-(3-Chloro-4-methoxybenzyl)-2-[2-hydroxy-1-(hydroxymethyl)ethylamino]-5-(trifluoromethyl)benzamide]
< 10 nM	O=C(NCc1ccc(Cl)c(Cl)c1)c1cc([N+](=O)[O-])ccc1NC1CCCC1 [2-(Cyclopentylamino)-N-(3,4-dichlorobenzyl)-5-nitrobenzamide]
< 10 nM	COc1ccc(CNC(=O)c2cc([N+](=O)[O-])ccc2N[C@H]2CC[C@@H](NC=O)CC2)cc1OC [2-(cis-4-Formamidocyclohexylamino)-N-(3,4-dimethoxybenzyl)-5-nitrobenzamide]
< 10 nM	NC(=O)C1CCC(Nc2ccc([N+](=O)[O-])cc2C(=O)NCc2ccc3c(c2)OCO3)CC1 (stereo not drawn) [2-(4-carbamoylcyclohexylamino)-5-nitro-N-(1,3-benzodioxol-5-ylmethyl)benzamide]
< 10 nM	COc1cc(CNC(=O)c2cc([N+](=O)[O-])ccc2NC(CO)CO)ccc1OCC1CCC1 [N-(4-Cyclobutylmethoxy-3-methoxybenzyl)-2-[2-hydroxy-1-(hydroxymethyl)ethylamino]-5-nitrobenzamide]
< 10 nM	O=C(NCc1ccc(Cl)cc1)c1cc([N+](=O)[O-])ccc1NC1CCCC1 [N-(4-Chlorobenzyl)-2-(cyclopentylamino)-5-nitrobenzamide]
< 10 nM	O=C(NCc1ccc2c(c1)OCO2)c1cc([N+](=O)[O-])ccc1NC1CCC(C(=O)O)CC1 (stereo not drawn) [2-(4-carboxycyclohexylamino)-5-nitro-N-(1,3-benzodioxol-5-ylmethyl)benzamide]

Compound	IC50
COc1ccc(CNC(=O)c2cc([N+](=O)[O-])ccc2NC2CCN(C(=O)OC(C)(C)C)CC2)cc1OC [2-[1-(tert-Butoxycarbonyl)piperidin-4-ylamino]-N-(3,4-dimethoxybenzyl)-5-nitrobenzamide]	< 10 nM
COc1ccc(CNC(=O)c2cc([N+](=O)[O-])ccc2NC2CCN(C(=NC(=O)OC(C)(C)C)NC(=O)OC(C)(C)C)CC2)cc1OC [2-[1-[1,3-Bis(tert-butoxycarbonyl)amidino]piperidin-4-ylamino]-N-(3,4-dimethoxybenzyl)-5-nitrobenzamide]	< 10 nM
